# Measurements reported in ChEMBL document CHEMBL1132906, “Squalamine analogues as potential anti-trypanosomal and anti-leishmanial compounds” (2000).
# “And” between values parts separate entries of the source, which are not always exact repeats. Equal entries are not always repeated. The source made the active and inactive calls. No cut-off for these calls is given here.
# Experiments:
# [1] = The compound was evaluated for its toxicity against KB cells; format: functional; conditions: Homo sapiens, read-out: ED50 (the source's name)
# Leishmania donovani = experiment: The compound was evaluated for its inhibitory activity against Leishmania donovani; format: functional; conditions: read-out: ED50 (the source's name)
# Trypanosoma brucei [2] = experiment: The compound was evaluated for its inhibitory activity against Trypanosoma brucei (indicate results of two experiments); format: functional; conditions: read-out: ED50 (the source's name)
# Trypanosoma cruzi [3] = experiment: The compound was evaluated for its inhibitory activity against Trypanosoma cruzi; format: functional; conditions: read-out: ED50 (the source's name)
# Trypanosoma cruzi [4] = experiment: The compound was evaluated for its inhibitory activity against Trypanosoma cruzi (toxic effect on macrophages); format: functional; conditions: read-out: ED50 (the source's name)
# Trypanosoma brucei [5] = experiment: The compound was evaluated for its inhibitory activity against Trypanosoma brucei; format: functional; conditions: read-out: ED50 (the source's name)
# Mus musculus [6] = experiment: Percent reduction (in vivo) against mice infected with Leishmania donovani after intraperitoneal administration of compound (50 mg/kg for 5 days); format: functional
# Mus musculus [7] = experiment: Inhibitory activity (in vivo) against mice infected with Trypanosoma rhodesiense after intraperitoneal administration of compound (50 mg/kg for 4 days); No effect; format: functional, organism-based
# Trypanosoma brucei [8] = experiment: The compound was evaluated for the inhibition of Trypanosoma brucei at 1 (ug/ml).; format: functional
Compound,EC50 (Leishmania donovani) [µM],EC50 (Trypanosoma brucei [2]) [µM],EC50 (Trypanosoma cruzi [3]),EC50 (Trypanosoma brucei [5]),EC50 (Trypanosoma brucei [5]; Trypanosoma brucei) [µM],EC50 [1] [µM],EC50 (Trypanosoma cruzi [4]) [µM],Reduction (Mus musculus [6]) [%],Activity (Mus musculus [7]),Inhibition (Trypanosoma brucei [8]) [%]
CC(C(=O)NCCCNCCCCN)[C@H]1CCC2C3CC=C4C[C@@H](OS(=O)(=O)O)CC[C@]4(C)C3CC[C@@]21C (stereo partly drawn),39.9,> 53,13.5 µM,–,–,> 526,–,–,–,–
CC(C(=O)NCCCN(CCCCNC(=O)OC(C)(C)C)C(=O)OC(C)(C)C)[C@H]1CCC2C3CC=C4C[C@@H](OS(=O)(=O)O)CC[C@]4(C)C3CC[C@@]21C (stereo partly drawn),4.9,> 36,–,–,–,> 360,> 36,–,–,–
CC(C(=O)NCCCNCCCCN)[C@H]1CCC2C3CC=C4C[C@@H](O)CC[C@]4(C)C3CC[C@@]21C (stereo partly drawn),44.7,–,–,1.9 µM and 0.63 µM,–,3.3,> 63,–,–,–
CC(=O)O[C@H]1CC[C@@]2(C)C(=CCC3C2CC[C@@]2(C)C3CC[C@@H]2C(C)C(=O)NCCCN(CCCCNC(=O)OC(C)(C)C)C(=O)OC(C)(C)C)C1 (stereo partly drawn),17.3,2.6,> 42 µM,–,–,111,–,–,–,–
CC(C(=O)NCCCNCCCCNCCCN)[C@H]1CCC2C3CC=C4C[C@@H](O)CC[C@]4(C)C3CC[C@@]21C (stereo partly drawn),5,–,–,1.1 µM,0.56,15,> 57,16,inactive,–
O=C(Cn1ccnc1[N+](=O)[O-])NCc1ccccc1 [BENZNIDAZOLE],–,–,7.45 µg/mL,–,–,–,–,–,–,–
N=C(N)c1ccc(OCCCCCOc2ccc(C(=N)N)cc2)cc1 [PENTAMIDINE],–,–,–,–,–,–,–,–,–,100

# Now from value to compound, other results behind:
EC50 (Leishmania donovani) [µM],EC50 (Trypanosoma brucei [2]) [µM],EC50 (Trypanosoma cruzi [3]),EC50 (Trypanosoma brucei [5]),EC50 (Trypanosoma brucei [5]; Trypanosoma brucei) [µM],Compound,EC50 [1] [µM],EC50 (Trypanosoma cruzi [4]) [µM],Reduction (Mus musculus [6]) [%],Activity (Mus musculus [7]),Inhibition (Trypanosoma brucei [8]) [%]
25.7,–,–,4.7 µM and 1.5 µM,–,CC(C(=O)NCCCN(CCCCNC(=O)OC(C)(C)C)C(=O)OC(C)(C)C)[C@H]1CCC2C3CC=C4C[C@@H](O)CC[C@]4(C)C3CC[C@@]21C (stereo partly drawn),65,> 15,–,–,–
4.7,–,> 34 µM,0.57 µM,1.1,CC(=O)O[C@H]1CC[C@@]2(C)C(=CCC3C2CC[C@@]2(C)C3CC[C@@H]2C(C)C(=O)NCCCN(CCCCN(CCCNC(=O)OC(C)(C)C)C(=O)OC(C)(C)C)C(=O)OC(C)(C)C)C1 (stereo partly drawn),31,–,–,–,–
12.6,0.6,> 36 µM,–,–,CC(C(=O)NCCCN(CCCCN(CCCNC(=O)OC(C)(C)C)C(=O)OC(C)(C)C)C(=O)OC(C)(C)C)[C@H]1CCC2C3CC=C4C[C@@H](O)CC[C@]4(C)C3CC[C@@]21C (stereo partly drawn),27,–,–,–,–
